# How the values were obtained:
# [1] = tested on: Pseudomonas aeruginosa KM338; test: Antibacterial activity (MIC, growth in BHI medium); assay type: cell-based; set-up: key to Antibacterial activity (growth): -: grow; ±: slightly grow; +: not grow
# Experimental: (§1) To a test tube was charged 3.8 ml of Brain Heart Infusion (BHI) medium, and 100 μl of a sample solution containing oleanolic, ursolic or glycyrrhetic acid and 100 μl of pre-incubated culture of bacterium selected from those listed below were added thereto. The mixture was incubated at 37° C. and then allowed to stand over night. The extent of the growth of bacterium was observed after two or five days. The MIC value was determined for each sample and summarized in Table 2. |Pseudomonas aeruginosa KM338
# [2] = tested on: Staphylococcus aureus 209P; test: Antibacterial activity (MIC, growth in BHI medium); assay type: cell-based; set-up: key to Antibacterial activity (growth): -: grow; ±: slightly grow; +: not grow
# Experimental: as §1, with “|Staphylococcus aureus […]” for “|Pseudomonas aeruginosa KM338”
smiles,measurement,setting,value
CC1(C)CC[C@]2(C(=O)O)CC[C@]3(C)C(=CC[C@@H]4[C@@]5(C)CC[C@H](O)C(C)(C)[C@@H]5CC[C@]43C)[C@@H]2C1 [Oleanolic acid],Antibacterial activity (growth),[1]; 10 μg/ml,-
same,Antibacterial activity (growth),[1]; 25 μg/ml,-
same,Antibacterial activity (growth),[1]; 50 μg/ml,-
same,Antibacterial activity (growth),[1]; 100 μg/ml,-
same,Antibacterial activity (growth),[1]; 200 μg/ml,-
same,Antibacterial activity (growth),[1]; 400 μg/ml,-
same,MIC,"[1]; KM338, Pseudomonas aeruginosa, BHI, 37° C., read-out: MIC (minimum inhibitory concentration)",> 400 µg/mL
same,Antibacterial activity (growth),[2]; 10 μg/ml,-
same,Antibacterial activity (growth),[2]; 25 μg/ml,-
same,Antibacterial activity (growth),[2]; 50 μg/ml,-
same,Antibacterial activity (growth),[2]; 100 μg/ml,-
same,Antibacterial activity (growth),[2]; 200 μg/ml,-
same,Antibacterial activity (growth),[2]; 400 μg/ml,-
same,MIC,"[2]; 209P, Staphylococcus aureus, BHI, 37° C., read-out: MIC (minimum inhibitory concentration)",> 400 µg/mL
